Source: patent publication US20170190671A1, “BIS(ARYL)CATECHOL DERIVATIVES AS HERBICIDES” (E I DU PONT DE NEMOURS AND COMPANY, priority 2014, published 2017)

Experiments:
Format in all cases: in vivo
[1] = tested on: barnyardgrass (Echinochloa crus-galli); assay: Test B flooded paddy; settings: 250 g ai/ha, Flood, 13 to 15 days, scale 0 (no effect) to 100 (complete control)
Source text: (§1) At time of treatment, test pots were flooded to 3 cm above the soil surface, treated by application of test compounds directly to the paddy water, and then maintained at that water depth for the duration of the test. Treated plants and controls were maintained in a greenhouse for 13 to 15 days, after which time all species were compared to controls and visually evaluated. […] A dash (-) response means no test result.

[2] = tested on: ducksalad (Heteranthera limosa); assay: Test B flooded paddy; settings: 250 g ai/ha, Flood, 13 to 15 days, scale 0 (no effect) to 100 (complete control)
Source text: as §1

[3] = tested on: rice (Oryza sativa); assay: Test B flooded paddy; settings: 250 g ai/ha, Flood, 13 to 15 days, scale 0 (no effect) to 100 (complete control)
Source text: as §1

[4] = tested on: sedge, umbrella (small-flower umbrella sedge, Cyperus difformis); assay: Test B flooded paddy; settings: 250 g ai/ha, Flood, 13 to 15 days, scale 0 (no effect) to 100 (complete control)
Source text: as §1

[5] = tested on: Italian ryegrass (Lolium multiflorum); assay: Test A preemergence; settings: for Plant response rating, Ryegrass, Italian: 0 to 100 scale
Source text: (§2) Seeds of plant species selected from barnyardgrass (Echinochloa crus-galli), kochia (Kochia scoparia), ragweed (common ragweed, Ambrosia elatior), Italian ryegrass (Lolium multiflorum), large (Lg) crabgrass (Digitaria sanguinalis), giant foxtail (Setaria faberii), morningglory (Ipomoea spp.), pigweed (Amaranthus retroflexus), velvetleaf (Abutilon theophrasti), wheat (Triticum aestivum), and corn (Zea mays) were planted into a blend of loam soil and sand and treated preemergence with a directed soil spray using test chemicals formulated in a non-phytotoxic solvent mixture which included a surfactant.
(§3) At the same time, plants selected from these crop and weed species and also blackgrass (Alopecurus myosuroides), and galium (catchweed bedstraw, Galium aparine) were planted in pots containing the same blend of loam soil and sand and treated with postemergence applications of test chemicals formulated in the same manner. Plants ranged in height from 2 to 10 cm and were in the one- to two-leaf stage for the postemergence treatment. Treated plants and untreated controls were maintained in a greenhouse for approximately 10 days, after which time all treated plants were compared to untreated controls and visually evaluated for injury. Plant response ratings, summarized in Table A, are based on a 0 to 100 scale where 0 is no effect and 100 is complete control. A dash (-) response means no test result.

[6] = tested on: barnyardgrass (Echinochloa crus-galli); assay: Test A preemergence; settings: for Plant response rating, Barnyardgrass: 0 to 100 scale
Source text: as §2, §3

[7] = tested on: giant foxtail (Setaria faberii); assay: Test A preemergence; settings: for Plant response rating, Foxtail, Giant: 0 to 100 scale
Source text: as §2, §3

[8] = tested on: kochia (Kochia scoparia); assay: Test A preemergence; settings: for Plant response rating, Kochia: 0 to 100 scale
Source text: as §2, §3

[9] = tested on: pigweed (Amaranthus retroflexus); assay: Test A preemergence; settings: for Plant response rating, Pigweed: 0 to 100 scale
Source text: as §2, §3

[10] = tested on: ragweed (common ragweed, Ambrosia elatior); assay: Test A preemergence; settings: for Plant response rating, Ragweed: 0 to 100 scale
Source text: as §2, §3

[11] = tested on: Italian ryegrass (Lolium multiflorum); assay: Test A postemergence; settings: 0 to 100 scale
Source text: as §2, §3

[12] = tested on: barnyardgrass (Echinochloa crus-galli); assay: Test A postemergence; settings: 0 to 100 scale
Source text: as §2, §3

[13] = tested on: blackgrass (Alopecurus myosuroides); assay: Test A postemergence; settings: 0 to 100 scale
Source text: as §2, §3

[14] = tested on: corn (Zea mays); assay: Test A postemergence; settings: 0 to 100 scale
Source text: as §2, §3

[15] = tested on: galium (catchweed bedstraw, Galium aparine); assay: Test A postemergence; settings: 0 to 100 scale
Source text: as §2, §3

[16] = tested on: giant foxtail (Setaria faberii); assay: Test A postemergence; settings: 0 to 100 scale
Source text: as §2, §3

[17] = tested on: kochia (Kochia scoparia); assay: Test A postemergence; settings: 0 to 100 scale
Source text: as §2, §3

[18] = tested on: pigweed (Amaranthus retroflexus); assay: Test A postemergence; settings: 0 to 100 scale
Source text: as §2, §3

[19] = tested on: ragweed (common ragweed, Ambrosia elatior); assay: Test A postemergence; settings: 0 to 100 scale
Source text: as §2, §3

[20] = tested on: wheat (Triticum aestivum); assay: Test A postemergence; settings: 0 to 100 scale
Source text: as §2, §3

[21] = 31 g ai/ha, 0 to 100 scale (0 no effect, 100 complete control)

SMILES	Plant response rating, Barnyardgrass [1]	Plant response rating, Ducksalad [2]	Plant response rating, Rice [3]	Plant response rating, Sedge, Umbrella [4]	Plant response rating, Ryegrass, Italian ([5]; 125 g ai/ha)	Plant response rating, Barnyardgrass ([6]; 125 g ai/ha)	Plant response rating, Foxtail, Giant ([7]; 125 g ai/ha)	Plant response rating, Kochia ([8]; 125 g ai/ha)	Plant response rating, Pigweed ([9]; 125 g ai/ha)	Plant response rating, Ragweed ([10]; 125 g ai/ha)	Plant response rating, Ryegrass, Italian ([11]; 125 g ai/ha)	Plant response rating, Barnyardgrass ([12]; 125 g ai/ha)	Plant response rating, Blackgrass ([13]; 125 g ai/ha)	Plant response rating, Corn ([14]; 125 g ai/ha)	Plant response rating, Galium ([15]; 125 g ai/ha)	Plant response rating, Foxtail, Giant ([16]; 125 g ai/ha)	Plant response rating, Kochia ([17]; 125 g ai/ha)	Plant response rating, Pigweed ([18]; 125 g ai/ha)	Plant response rating, Ragweed ([19]; 125 g ai/ha)	Plant response rating, Wheat ([20]; 125 g ai/ha)	further results
N#Cc1cccc(Oc2ncc(Cl)cn2)c1Oc1ccc(C(F)(F)F)nc1 [Compound 13]	0	0	0	0	0	0	0	0	0	0	0	0	0	0	0	0	0	10	0	0	Plant response rating, Ryegrass, Italian ([5]; 500 g ai/ha): 0; Plant response rating, Barnyardgrass ([6]; 500 g ai/ha): 0; Plant response rating, Foxtail, Giant ([7]; 500 g ai/ha): 0; Plant response rating, Kochia ([8]; 500 g ai/ha): 0; Plant response rating, Pigweed ([9]; 500 g ai/ha): 0; Plant response rating, Ragweed ([10]; 500 g ai/ha): 0; Plant response rating, Ryegrass, Italian ([11]; 500 g ai/ha): 0; Plant response rating, Barnyardgrass ([12]; 500 g ai/ha): 0; Plant response rating, Blackgrass ([13]; 500 g ai/ha): 0; Plant response rating, Corn ([14]; 500 g ai/ha): 0; Plant response rating, Galium ([15]; 500 g ai/ha): 0; Plant response rating, Foxtail, Giant ([16]; 500 g ai/ha): 0; Plant response rating, Kochia ([17]; 500 g ai/ha): 0; Plant response rating, Pigweed ([18]; 500 g ai/ha): 40; Plant response rating, Ragweed ([19]; 500 g ai/ha): 0; Plant response rating, Wheat ([20]; 500 g ai/ha): 0
N#Cc1cccc(Oc2ncc(Cl)cn2)c1Oc1ccc(C(F)(F)F)cn1 [Compound 14]	0	30	15	0	0	0	0	0	80	0	0	0	30	0	50	20	0	50	0	0	Ryegrass, Italian plant response rating [5, 21]: 0; Barnyardgrass plant response rating [6, 21]: 0; Foxtail, Giant plant response rating [7, 21]: 0; Kochia plant response rating [8, 21]: 0; Pigweed plant response rating [9, 21]: 40; Ragweed plant response rating [10, 21]: 0; Plant response rating, Ryegrass, Italian ([11]; 31 g ai/ha): 0; Plant response rating, Barnyardgrass ([12]; 31 g ai/ha): 0; Plant response rating, Blackgrass ([13]; 31 g ai/ha): 0; Plant response rating, Corn ([14]; 31 g ai/ha): 0; Plant response rating, Galium ([15]; 31 g ai/ha): 40; Plant response rating, Foxtail, Giant ([16]; 31 g ai/ha): 0; Plant response rating, Kochia ([17]; 31 g ai/ha): 0; Plant response rating, Pigweed ([18]; 31 g ai/ha): 0; Plant response rating, Ragweed ([19]; 31 g ai/ha): 0; Plant response rating, Wheat ([20]; 31 g ai/ha): 0
